Values after ≈ are worked out from the molar mass of the structure shown. Active and inactive are the calls of the source. No cut-off for these calls is given here.
Columns and labels:
DNA [1] = test: Displacement of neutral red from drug-resistant Staphylococcus aureus DNA assessed as DNA intercalation by UV-visible absorption spectra analysis; type: nucleic-acid assay; conditions: dose <= 1.5 10^-5mol/L
[2] = Hemolytic activity in human RBC assessed as hemolysis ratio at 0.0189 mM measured after 1 hr relative to control; type: toxicity, cell-based, Erythrocyte; conditions: red blood cells (erythrocytes)
Acinetobacter baumannii = test: Antibacterial activity against Acinetobacter baumannii by microbroth dilution method; type: functional
Staphylococcus aureus [3] = test: Potency index, ratio of norfloxacin MIC to test compound MIC for drug-resistant Staphylococcus aureus by microbroth dilution method; type: functional
[4] = Hemolytic activity in human RBC assessed as hemolysis ratio at 0.0094 mM measured after 1 hr relative to control; type: toxicity, cell-based, Erythrocyte; conditions: red blood cells (erythrocytes)
Candida parapsilosis = test: Antifungal activity against Candida parapsilosis ATCC 22019; type: functional; conditions: Lodderomyces parapsilosis
Staphylococcus aureus [5] = test: Antibacterial activity against drug-resistant Staphylococcus aureus by microbroth dilution method; type: functional
Pseudomonas aeruginosa [6] = test: Antibacterial activity against Pseudomonas aeruginosa by microbroth dilution method; type: functional
Escherichia coli [7] = test: Antibacterial activity against drug-resistant Escherichia coli by microbroth dilution method; type: functional
DNA [8] = test: Binding affinity to drug-resistant Staphylococcus aureus DNA assessed as hypochromic effect at 7.86 x 10^-5 mol/L by UV-visible absorption spectra analysis; type: nucleic-acid assay; conditions: dose 7.86 10^-5mol/L
[9] = Cytotoxicity against human A549 cells assessed as cell viability up to 0.3019 mM measured after 72 hrs by MTT assay relative to control; type: toxicity, cell-based; conditions: read-out: Activity
Staphylococcus aureus [10] = test: Antibacterial activity against Staphylococcus aureus ATCC 25923 by microbroth dilution method; type: functional
[11] = Cytotoxicity against mouse L929 cells assessed as cell viability up to 0.3019 mM measured after 72 hrs by MTT assay relative to control; type: toxicity, cell-based; conditions: read-out: Activity
[12] = Toxicity in mouse assessed as change in body weight at 5 to 10 mg/kg administered for 10 days; type: organism-based; conditions: in vivo, 240 h, dose 5-10 mg/kg, time 10 day
DNA [13] = test: Displacement of neutral red from drug-resistant Staphylococcus aureus DNA assessed as DNA intercalation by measuring blue shift up to 1.5 x 10^-5 mol/L by UV-visible absorption spectra analysis (reference value: 460 nm); type: nucleic-acid assay; conditions: dose <= 1.5 10^-5mol/L
[14] = Toxicity in mouse assessed as change in spleen morphology at 5 to 10 mg/kg administered for 10 days by hematoxylin and eosin staining based assay; type: organism-based; conditions: in vivo, 240 h, dose 5-10 mg/kg, time 10 day
Staphylococcus aureus [15] = test: Antibacterial activity against methicillin-resistant Staphylococcus aureus N315 by microbroth dilution method; type: functional
Staphylococcus aureus [16] = test: Antibacterial activity against Staphylococcus aureus ATCC 29213 by microbroth dilution method; type: functional
Candida albicans [17] = test: Antifungal activity against drug-resistant Candida albicans; type: functional
Aspergillus fumigatus = test: Antifungal activity against Aspergillus fumigatus; type: functional
Staphylococcus aureus [18] = test: Induction of resistance development in Staphylococcus aureus measured after 16 passages; type: functional
[19] = Toxicity in mouse assessed as change in liver morphology at 5 to 10 mg/kg administered for 10 days by hematoxylin and eosin staining based assay; type: organism-based; conditions: in vivo, 240 h, dose 5-10 mg/kg, time 10 day
Candida albicans [20] = test: Antifungal activity against Candida albicans ATCC 90023; type: functional
[21] = Hemolytic activity in human RBC assessed as hemolysis ratio at 0.0024 mM measured after 1 hr relative to control; type: toxicity, cell-based, Erythrocyte; conditions: red blood cells (erythrocytes)
Klebsiella pneumoniae = test: Antibacterial activity against Klebsiella pneumoniae by microbroth dilution method; type: functional
Escherichia coli [22] = test: Antibacterial activity against Escherichia coli ATCC 25922 by microbroth dilution method; type: functional
Cell membrane = test: Induction of membrane permeabilization in drug-resistant Staphylococcus aureus at 0.0283 mM measured within 60 mins by propidium iodide staining based fluorescence assay
Topoisomerase IV = Topoisomerase IV (Staphylococcus aureus, UniProt P0C1S7+P0C1U9); test: Inhibition of drug-resistant Staphylococcus aureus topoisomerase 4; type: protein-complex assay
[23] = Hemolytic activity in human RBC assessed as hemolysis ratio at 0.0047 mM measured after 1 hr relative to control; type: toxicity, cell-based, Erythrocyte; conditions: red blood cells (erythrocytes)
Candida tropicalis = test: Antifungal activity against drug-resistant Candida tropicalis; type: functional
[24] = Toxicity in mouse assessed as change in kidney morphology at 5 to 10 mg/kg administered for 10 days by hematoxylin and eosin staining based assay; type: organism-based; conditions: in vivo, 240 h, dose 5-10 mg/kg, time 10 day
Pseudomonas aeruginosa [25] = test: Antibacterial activity against Pseudomonas aeruginosa ATCC 27853 by microbroth dilution method; type: functional
Enterococcus faecalis = test: Antibacterial activity against drug-resistant Enterococcus faecalis by microbroth dilution method; type: functional
DNA [26] = test: Binding affinity to drug-resistant Staphylococcus aureus DNA by UV-visible absorption spectra analysis; type: nucleic-acid assay
Staphylococcus aureus [27] = test: Induction of resistance development in Staphylococcus aureus measured after 4 passages; type: functional

Sequence of Topoisomerase IV (P0C1U9 whole entry): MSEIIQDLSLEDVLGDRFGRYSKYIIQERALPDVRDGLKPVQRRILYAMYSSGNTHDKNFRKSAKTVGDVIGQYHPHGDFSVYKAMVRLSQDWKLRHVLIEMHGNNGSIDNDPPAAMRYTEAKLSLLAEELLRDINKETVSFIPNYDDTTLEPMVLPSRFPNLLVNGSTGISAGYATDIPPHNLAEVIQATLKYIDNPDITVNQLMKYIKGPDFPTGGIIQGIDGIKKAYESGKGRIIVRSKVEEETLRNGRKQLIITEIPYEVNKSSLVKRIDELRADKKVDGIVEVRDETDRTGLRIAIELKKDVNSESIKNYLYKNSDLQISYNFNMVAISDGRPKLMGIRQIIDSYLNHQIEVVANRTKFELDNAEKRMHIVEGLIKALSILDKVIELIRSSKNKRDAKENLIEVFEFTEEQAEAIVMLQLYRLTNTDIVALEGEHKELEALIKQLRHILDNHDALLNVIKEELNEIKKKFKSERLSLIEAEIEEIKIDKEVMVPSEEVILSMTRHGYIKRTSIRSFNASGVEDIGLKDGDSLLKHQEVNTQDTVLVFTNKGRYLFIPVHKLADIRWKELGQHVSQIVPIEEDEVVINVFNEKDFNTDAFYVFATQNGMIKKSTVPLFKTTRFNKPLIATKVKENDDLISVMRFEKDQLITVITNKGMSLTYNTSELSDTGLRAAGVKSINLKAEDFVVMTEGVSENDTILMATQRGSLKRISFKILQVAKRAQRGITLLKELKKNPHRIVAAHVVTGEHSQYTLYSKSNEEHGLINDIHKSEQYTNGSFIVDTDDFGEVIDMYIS
Sequence of Topoisomerase IV (P0C1S7 whole entry): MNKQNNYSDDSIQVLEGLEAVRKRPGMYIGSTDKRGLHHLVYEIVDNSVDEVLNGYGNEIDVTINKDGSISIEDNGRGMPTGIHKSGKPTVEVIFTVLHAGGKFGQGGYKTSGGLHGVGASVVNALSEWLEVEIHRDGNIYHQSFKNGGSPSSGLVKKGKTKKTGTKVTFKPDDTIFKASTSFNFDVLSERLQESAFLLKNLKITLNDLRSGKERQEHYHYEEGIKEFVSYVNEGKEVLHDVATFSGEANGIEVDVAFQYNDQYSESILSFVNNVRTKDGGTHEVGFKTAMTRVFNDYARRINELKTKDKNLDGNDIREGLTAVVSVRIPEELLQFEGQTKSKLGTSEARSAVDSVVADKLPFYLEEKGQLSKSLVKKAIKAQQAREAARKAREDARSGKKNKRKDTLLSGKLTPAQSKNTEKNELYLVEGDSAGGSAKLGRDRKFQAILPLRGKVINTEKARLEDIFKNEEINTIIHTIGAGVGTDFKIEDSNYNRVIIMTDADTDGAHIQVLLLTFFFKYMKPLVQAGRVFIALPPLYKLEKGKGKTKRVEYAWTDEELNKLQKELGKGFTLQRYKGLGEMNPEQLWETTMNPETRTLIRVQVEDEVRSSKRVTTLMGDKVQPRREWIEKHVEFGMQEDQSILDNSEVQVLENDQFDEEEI

Compound	MIC (Acinetobacter baumannii) [µM]	MIC (Candida parapsilosis) [µM]	MIC (Staphylococcus aureus [5]) [µM]	MIC (Pseudomonas aeruginosa [6]) [µM]	MIC (Escherichia coli [7]) [µM]	MIC (Staphylococcus aureus [10]) [µM]	MIC (Staphylococcus aureus [15]) [µM]	MIC (Staphylococcus aureus [16]) [µM]	MIC (Candida albicans [17]) [µM]	MIC (Aspergillus fumigatus) [µM]	MIC (Candida albicans [20]) [µM]	MIC (Klebsiella pneumoniae) [µM]	MIC (Escherichia coli [22]) [µM]	MIC (Candida tropicalis) [µM]	MIC (Pseudomonas aeruginosa [25]) [µM]	MIC (Enterococcus faecalis) [µM]	further results
C/C(Cn1cc(-c2csc(N)n2)c(=O)c2cc(F)c(Cl)cc21)=N\NC(N)=S	151 (≈ 64.2 µg/mL)	5 (≈ 2.12 µg/mL)	5 (≈ 2.12 µg/mL)	76 (≈ 32.3 µg/mL)	151 (≈ 64.2 µg/mL)	38 (≈ 16.1 µg/mL)	38 (≈ 16.1 µg/mL)	5 (≈ 2.12 µg/mL)	19 (≈ 8.07 µg/mL)	151 (≈ 64.2 µg/mL)	19 (≈ 8.07 µg/mL)	302 (≈ 128 µg/mL)	19 (≈ 8.07 µg/mL)	151 (≈ 64.2 µg/mL)	19 (≈ 8.07 µg/mL)	302 (≈ 128 µg/mL)	Activity (DNA [1]): Dose-Dependent Effect; hemolysis at 1 h, 18.9 µM [2]: 2.21%; Ratio (Staphylococcus aureus [3]): 5; hemolysis at 1 h, 9.4 µM [4]: 1.25%; Activity (DNA [8]): Active; viability at 72 h, up to 301.9 µM [9]: > 75%; viability at 72 h, up to 301.9 µM [11]: > 75%; Activity [12]: Toxic; Activity (DNA [13]): 420 nm; Activity [14]: Non-Toxic; Activity (Staphylococcus aureus [18]): Active; Activity [19]: Non-Toxic; hemolysis at 1 h, 2.4 µM [21]: 0.472%; Activity (Cell membrane): Active; IC50 (Topoisomerase IV): 10.9 µM; hemolysis at 1 h, 4.7 µM [23]: 1.07%; Activity [24]: Non-Toxic; K (DNA [26]): 6.32 10^4L/mol
CCn1cc(C(=O)O)c(=O)c2cc(F)c(N3CCNCC3)cc21 [NORFLOXACIN]	802 (≈ 256 µg/mL)		25 (≈ 7.98 µg/mL)	1600 (≈ 512 µg/mL)	1600 (≈ 512 µg/mL)	2 (≈ 0.639 µg/mL)	25 (≈ 7.98 µg/mL)	3 (≈ 0.958 µg/mL)				802 (≈ 256 µg/mL)	25 (≈ 7.98 µg/mL)		50 (≈ 16 µg/mL)	802 (≈ 256 µg/mL)	Activity (Staphylococcus aureus [27]): inactive
CC(=O)Cn1cc(-c2csc(C)n2)c(=O)c2cc(F)ccc21	1620 (≈ 512 µg/mL)	1620 (≈ 512 µg/mL)	1620 (≈ 512 µg/mL)	810 (≈ 256 µg/mL)	1620 (≈ 512 µg/mL)	1620 (≈ 512 µg/mL)	1620 (≈ 512 µg/mL)	405 (≈ 128 µg/mL)	810 (≈ 256 µg/mL)	810 (≈ 256 µg/mL)	405 (≈ 128 µg/mL)	810 (≈ 256 µg/mL)	1620 (≈ 512 µg/mL)	810 (≈ 256 µg/mL)	810 (≈ 256 µg/mL)	1620 (≈ 512 µg/mL)	
